The source of these data is patent publication US7452865B2, “Antagonistic analogs of GH RH (2003)” (The Administrare's of the Tulane Educational Fund, priority 2004, dated 2008).

The subject of the assay is hGH-RH(1-29)NH2 induced GH release. The assay is described as follows: Inhibition of GH release in superfused rat pituitary system. In kind it is cell-based. Particulars: for GH response (% of control) 0 min / GH response (% of control) 30 min / GH response (% of control) 60 min / GH response (% of control) 90 min / GH response (% of control) 120 min: antagonist 30 nM; for GH response (% of control) 0 min: 1 nM hGH-RH(1-29)NH2 at 0 min; for GH response (% of control) 30 min: 1 nM hGH-RH(1-29)NH2 at 30 min; for GH response (% of control) 60 min: 1 nM hGH-RH(1-29)NH2 at 60 min; for GH response (% of control) 90 min: 1 nM hGH-RH(1-29)NH2 at 90 min; for GH response (% of control) 120 min: 1 nM hGH-RH(1-29)NH2 at 120 min. The method, then: The analogs were tested in vitro in a test described earlier (S. Vigh and A. V Schally, Peptides 5:241-[…], 1984) with modification (Z. Rekasi and A. V. Schally, P.N.A.S. 90:2146-2149, 1993).
Briefly, the cells are preincubated with peptides for 9 minutes (3 mL) at various concentrations. Immediately after the incubation, 1 nM hGH-RH(1-29)NH2 is administered for 3 minutes (1 mL) 10 minute response). To check the duration of the antagonistic effect of the analogue, 1 nM hGH-RH(1-29)NH2 is applied 30, 60, 90, and 120 minutes later for 3 minutes [30, 60, 90, 120 min responses]. Net integral values of the GH responses are evaluated. GH responses are compared to and expressed as percent of the original GH response induced by 1 nM GH-RH(1-29)NH2 The effect of the new antagonists are compared to that of [Ac-Tyr^1, D-Arg^2]hGH-RH(1-29)NH2, the “Standard antagonist”.
Rat GH levels in aliquots of undiluted and diluted superfusion samples were measured by double-antibody radioimmunoassay using materials supplied by the National Hormone and Pituitary Program, Baltimore, Md. The results of RIA were analyzed with a computer program developed in our institute (V. Csernus and A. V. Schally, in Neuroendocrine Research Methods, Harwood Academic (Greenstein, B. D. ed., London, pp. 71-109, 1991), hereby incorporated by reference.

“[PhAc-Tyr^1, D-Arg^2, Phe(pCl)^6, Arg^9, Cha^10, Abu^15, Nle^27, D-Arg^28, Har^29]hGH-RH(1-29)NH2 [Peptide 33]”: the “GH response (% of control) 0 min” value is given as 97 % of control, the “GH response (% of control) 30 min” value is 89 % of control, the “GH response (% of control) 60 min” value is recorded as 78 % of control and the “GH response (% of control) 90 min” value is 97 % of control. In addition, the “GH response (% of control) 120 min” value was 82 % of control.

“[PhAc-Tyr^1, D-Arg^2, Phe(pCl)^6, Arg^9, His^10, Abu^15, Nle^27, D-Arg^28, Har^29]hGH-RH(1-29)NH2 [Peptide 32]”: the “GH response (% of control) 0 min” value is 28 % of control, the “GH response (% of control) 30 min” value was 43 % of control, the “GH response (% of control) 60 min” value is recorded as 69 % of control and the “GH response (% of control) 90 min” value is recorded as 76 % of control.

“[PhAc-Tyr^1, D-Arg^2, Phe(pCl)^6, Cit^8, Arg^9, Abu^15, Nle^27, D-Arg^28, Har^29]hGH-RH(1-29)NH2 [Peptide 21]”: the “GH response (% of control) 0 min” value is listed as 0 % of control, the “GH response (% of control) 30 min” value is 13 % of control, the “GH response (% of control) 60 min” value is given as 33 % of control and the “GH response (% of control) 90 min” value was 43 % of control. Moreover, the “GH response (% of control) 120 min” value was 37 % of control. Moreover, the “endocrine antagonistic potency: inhibition of the GH release stimulated by hGH-RH(1-29)NH2 (in words)” value (general statement, in vitro and in vivo) is “high endocrine antagonistic potencies”.

Regarding “[PhAc-Tyr^1, D-Arg^2, Phe(pCl)^6, Cit^8, Arg^9, Abu^15, Nle^27, Har^28, D-Arg^29]hGH-RH(1-29)NH2 [Peptide 23]”, the “GH response (% of control) 0 min” value is given as 55 % of control, the “GH response (% of control) 30 min” value was 40 % of control, the “GH response (% of control) 60 min” value is on record as 41 % of control and the “GH response (% of control) 90 min” value is 47 % of control. In addition, the “GH response (% of control) 120 min” value is 41 % of control.

“[PhAc-Tyr^1, D-Arg^2, Phe(pCl)^6, Cit^8, Cit^9, Abu^15, Nle^27, Har^28, D-Arg^29]hGH-RH(1-29)NH2 [Peptide 24]”: the “GH response (% of control) 0 min” value is recorded as 56 % of control, the “GH response (% of control) 30 min” value is recorded as 13 % of control, the “GH response (% of control) 60 min” value was 18 % of control and the “GH response (% of control) 90 min” value was 34 % of control. Further, the “GH response (% of control) 120 min” value is reported as 60 % of control.

As for “[PhAc-Tyr^1, D-Arg^2, Phe(pCl)^6, Cit^9, Abu^15, Nle^27, Har^28, D-Arg^29]hGH-RH(1-29)NH2 [Peptide 28]”, the “GH response (% of control) 0 min” value was 68 % of control, the “GH response (% of control) 30 min” value is 7 % of control, the “GH response (% of control) 60 min” value was 8 % of control and the “GH response (% of control) 90 min” value was 20 % of control. Moreover, the “GH response (% of control) 120 min” value is reported as 34 % of control.

As to “[PhAc-Tyr^1, D-Arg^2, Phe(pCl)^6, D-Ala^8, Arg^9, Abu^15, Nle^27, D-Arg^28, Har^29]hGH-RH(1-29)NH2 [Peptide 26]”, the “GH response (% of control) 0 min” value is reported as 20 % of control, the “GH response (% of control) 30 min” value is recorded as 43 % of control, the “GH response (% of control) 60 min” value was 66 % of control and the “GH response (% of control) 90 min” value is 48 % of control. The “GH response (% of control) 120 min” value is listed as 44 % of control.

As to “[PhAc-Tyr^1, D-Arg^2, Phe(pCl)^6, Har^9, 3-Pal^10, Abu^15, Nle^27, D-Arg^28, Har^29]hGH-RH(1-29)NH2 [Peptide 40]”, the “GH response (% of control) 0 min” value is 42 % of control, the “GH response (% of control) 30 min” value is 29 % of control, the “GH response (% of control) 60 min” value is recorded as 26 % of control and the “GH response (% of control) 90 min” value is recorded as 36 % of control. Moreover, the “GH response (% of control) 120 min” value was 30 % of control.
